According to patent publication US8349571B2, “High content screening” (Cellaura Technologies Limited, priority 2004, dated 2013):
Each block holds one molecule with its values, some of them ahead of it.

What was measured:
Type in all cases: cell-based
[1] = biological target: T1, human A1-AR (Homo sapiens, UniProt P30542); test: c-fos-pGL3 luciferase reporter functional study in CHO-A1fos cells
T1 construct: expressed in transfected cells; host or cells: CHO-K1 (CHO-A1fos)
T1 sequence (P30542 1-326): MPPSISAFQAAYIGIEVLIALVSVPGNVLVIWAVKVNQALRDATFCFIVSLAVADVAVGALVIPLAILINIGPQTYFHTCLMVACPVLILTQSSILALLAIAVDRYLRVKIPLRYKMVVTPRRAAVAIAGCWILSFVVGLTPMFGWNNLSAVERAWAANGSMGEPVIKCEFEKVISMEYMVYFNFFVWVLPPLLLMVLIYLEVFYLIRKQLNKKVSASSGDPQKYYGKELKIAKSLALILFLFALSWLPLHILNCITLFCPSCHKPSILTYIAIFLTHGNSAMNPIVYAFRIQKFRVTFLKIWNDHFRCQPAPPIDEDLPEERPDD
Experimental: (§1) Functional studies were performed in CHO-K1 cells expressing both the human A1-AR and a c-fos-pGL3 reporter vector (CHO-A1fos cells). […] Luciferase expression was quantified using a Luclite® kit according to manufacturer's instructions. Live cell confocal imaging was carried out on CHO-A1 cells or CHO cells expressing the A1-AR tagged on the C-terminus with a green fluorescent protein (CHO-A1Tpz).

[2] = biological target: T1, human A1-AR; test: Live cell confocal imaging of fluorescent ligand binding in CHO-A1 cells; details: 100 nM BY630-ABEA
Experimental: as §1

[3] = biological target: T2, A1-AR tagged on the C-terminus with a green fluorescent protein (Homo sapiens, UniProt P30542); test: Live cell confocal imaging in CHO cells expressing A1-AR tagged with green fluorescent protein (CHO-A1Tpz)
T2 construct: expressed in transfected cells; host or cells: CHO (CHO-A1Tpz)
T2 sequence (P30542 1-326): T1 sequence (P30542 1-326)
Experimental: as §1

effect of preincubation on BY630-ABEA membrane binding ([2]; DPCPX 1 μM, 30 min preincubation): substantially reduced
Molecule: CCCn1c(=O)c2[nH]c(C3CCCC3)nc2n(CCC)c1=O [DPCPX, 8-cyclopentyl-1,3-dipropylxanthine, reference compound]
effect on the response to BY630-ABEA ([1]; 100 nM DPCPX, n=3): completely blocked the response to BY630-ABEA

pEC50, stimulation of luciferase expression ([1]; CHO-A1fos cells, 5 h agonist stimulation, mean s.e.mean): 6.76±0.18
time after which binding of ligand to the membrane was detectable ([2]; CHO-A1 cells, n=3): 5 min
time after which binding of ligand to the membrane was substantial ([2]; CHO-A1 cells, n=3): 30 min
specificity of ligand binding from overlaid red and green channel images (FIG. 4B) ([3]; 100 nM, 30′, CHO cells (A1-R-Topaz)): ligand binding is specific to receptors
Molecule: NECA-BODIPY 630/650 [BY630-ABEA]
co-localisation of ligand fluorescence with tagged receptor ([3]; CHO-A1Tpz cells): co-localisation of ligand fluorescence at the membrane with that from the fluorescently tagged A1-AR

specificity of ligand binding from overlaid red and green channel images (FIG. 4A) ([3]; 50 nM, 15′, CHO cells (A1-R-Topaz)): ligand binding is specific to receptors
Molecule: XAC-BODIPY 630/650 [BODIPY-XAC]
